Data as given in PubChem BioAssay AID1259411 (Chemical Carcinogenesis Research Information System (CCRIS), 2018).
Calls of active or inactive are those of the source. How the calls were made is not given here.

Tested on: rodent carcinogenicity bioassays, tumor incidence
Experiment: CCRIS carcinogenicity studies
Summary of the method: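 NCI-built, expert-reviewed records of carcinogenicity and related test outcomes (mutagenicity, tumor promotion/inhibition) compiled from published and report sources, historical span 1985-2011, not updated.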

Clc1cc2oc3c(Cl)c(Cl)c(Cl)cc3c2cc1Cl
carcinogen call (Species: RAT, Strain/Sex: SPRAGUE-DAWLEY/FEMALE, Route: ORAL, Dose: 0, 6, 20, 44, 92, 200 NG/KG/D (STUDY DURATION: 2 YRS), Dose: 0, 6, 20, 44, 92, 200 NG/KG/D (STUDY DURATION: 2 YRS)): inactive; negative
carcinogen call (Species: RAT, Strain/Sex: WISTAR/MALE, Route: SUBCUTANEOUS, Dose: 0, 4, 40 UG ONCE IN OLIVE OIL (STUDY DURATION: 104 WK), Dose: 0, 4, 40 UG ONCE IN OLIVE OIL (STUDY DURATION: 104 WK), Tumor Site: Type of Lesion: LIVER: HEPATOCELLULAR CARCINOMA, NODULE, INJECTION SITE: TUMOR): active; positive
carcinogen call (Species: RAT, Strain/Sex: WISTAR/MALE, Route: SUBCUTANEOUS, Dose: 0, 4, 40 UG ONCE IN OLIVE OIL (STUDY DURATION: 104 WK), Dose: 0, 4, 40 UG ONCE IN OLIVE OIL (STUDY DURATION: 104 WK), Tumor Site: Type of Lesion: LIVER: NODULE, INJECTION SITE: TUMOR): active; positive
carcinogen call (Species: RAT, Strain/Sex: WISTAR/MALE, Route: SUBCUTANEOUS, Dose: 0, 20 UG IN OLIVE OIL 1/WK INTO BACK FOR 4 WK (STUDY DURATION: 104 WK), Tumor Site: Type of Lesion: LIVER: NODULE, INJECTION SITE: TUMOR): active; positive
carcinogen call (Species: RAT, Strain/Sex: WISTAR/MALE, Route: SUBCUTANEOUS, Dose: 0, 20 UG IN OLIVE OIL INTO BACK 1/WK FOR 4 WK (STUDY DURATION: 104 WK), Tumor Site: Type of Lesion: LIVER: HEPATOCELLULAR CARCINOMA, NODULE): active; positive
carcinogen call (Species: Rat, Strain/Sex: Harlan Sprague-Dawley/Female, Route: Gavage, Dose: 0, 200 ng 5 d/wk in corn oil:acetone (99:1) for 30 wk and then vehicle for remainder of 2 yr study, Tumor Site: Type of Lesion: Oral Mucosa: Gingival squamous cell carcinoma (1/53, 3/50) Pancreas: Acinar adenoma or carcinoma (0/53, 2/49)): active; positive trend (not statistically significant); for stop study vs. controls, inc
carcinogen call (Species: Rat, Strain/Sex: Harlan Sprague-Dawley/Female, Route: Gavage, Dose: 0, 6, 20, 44, 92, 200 ng in corn oil:acetone (99:1) 5 d/wk for 2 yrs, Dose: 0, 6, 20, 44, 92, 200 ng in corn oil:acetone (99:1) 5 d/wk for 2 yrs, Tumor Site: Type of Lesion: Liver: Hepatocellular adenoma (1/53, 0/53, 1/53, 0/52, 2/53, 4/53), Cholangiocarcinoma (0/53, 0/53, 0/53, 1/52, 1/53, 2/): active; positive (ntp reports as some evidence; findings in lung, pancreas, and uterus d

c1ccc2c(c1)cc1ccc3cccc4c5ccccc5c2c1c34
carcinogen call (Species: MOUSE, Route: DERMAL, Tumor Site: Type of Lesion: INTEGUMENTARY SYSTEM (SKIN)): active; positive
carcinogen call (Species: MOUSE, Route: SUBCUTANEOUS, Tumor Site: Type of Lesion: INJECTION SITE): active; positive
carcinogen call (Species: MOUSE, Strain/Sex: SWISS/FEMALE, Route: DERMAL, Dose: 0, 1, 4, 8 NMOL IN 100 µL ACETONE 2/WK FOR 40 WK (STUDY DURATION: 48 WK), Dose: 0, 1, 4, 8 NMOL IN 100 µL ACETONE 2/WK FOR 40 WK (STUDY DURATION: 48 WK), Tumor Site: Type of Lesion: SKIN: TUMORS): active; positive
carcinogen call (Species: Mouse, Strain/Sex: B6129SF1/J v 129S1/SvImJ crosses, Route: Transplacental, Dose: 15 mg/kg bw in corn oil to dams on day 18 of gestation, study duration 10 months, Tumor Site: Type of Lesion: Lung and liver tumors): active; positive
carcinogen call (Species: Mouse, Strain/Sex: B6129SF1x129S1/Svlmj/Male and female (215 in 4 groups), Route: In utero, nursing, or in utero and nursing, Dose: 15 mg/kg, gavage to pregnant B6129SF1 females, once on day 17 of pregnancy (Study duration 10 months from birth), Tumor Site: Type of Lesion: Lung): active; positive (surviving offspring exhibited 100% incidence with multiplicity of appr
carcinogen call (Species: RAT, Strain/Sex: SPRAGUE-DAWLEY/FEMALE, Route: INJECTION, Dose: 0, 0.25, 1 UMOL PER MAMMARY GLAND (STUDY DURATION: 24 WK), Dose: 0, 0.25, 1 UMOL PER MAMMARY GLAND (STUDY DURATION: 24 WK), Tumor Site: Type of Lesion: MAMMARY GLAND: TUMOR): active; positive

N#CS
carcinogen call (Species: RAT, Strain/Sex: F344/FEMALE, Route: ORAL, Dose: 0, 0.32% IN DRINKING WATER 5 D/WK FOR 112 WK (STUDY DURATION: 130 WK)): inactive; negative
carcinogen call (Species: RAT, Strain/Sex: F344/MALE, Route: ORAL, Dose: 0, 0.32% IN DRINKING WATER 5 D/WK FOR 112 WK (STUDY DURATION: 130 WK)): inactive; negative

CN(C)P(=O)(N(C)C)N(C)C
carcinogen call (Species: RAT, Route: INHALATION, Tumor Site: Type of Lesion: NASAL CAVITY): active; positive
carcinogen call (Species: RAT, Strain/Sex: STRAIN-CD/MALE,FEMALE, Route: INHALATION, Dose: 0, 10, 50, 100, 400, 4000 PPB FOR 6-24 MO (STUDY DURATION: 2 YR), Dose: 0, 10, 50, 100, 400, 4000 PPB FOR 6-24 MO (STUDY DURATION: 2 YR), Tumor Site: Type of Lesion: NASAL CAVITY: EPIDERMOID CARCINOMA): active; positive
carcinogen call (Species: RAT, Strain/Sex: STRAIN-CD/MALE,FEMALE, Route: INHALATION, Dose: 0, 10, 50, 100, 400, 4000 PPB FOR 6-24 MO, STUDY DURATION: 24-25 MO, Dose: 0, 10, 50, 100, 400, 4000 PPB FOR 6-24 MO, STUDY DURATION: 24-25 MO, Tumor Site: Type of Lesion: NASAL CAVITY: SQUAMOUS CELL PAPILLOMA, EPIDERMOID CARCINOMA, NASAL CAVITY (ADENOID): SQUAMOUS CELL CARCINOMA): active; positive

NC(=S)NNC(N)=S
carcinogen call (Species: MOUSE, Strain/Sex: B6C3F1/FEMALE, Route: ORAL, Dose: 0, 1.0, 2.0% OF DIET FOR 78 WK (STUDY DURATION: 94 WK), Dose: 0, 1.0, 2.0% OF DIET FOR 78 WK (STUDY DURATION: 94 WK), Tumor Site: Type of Lesion: LIVER: HEPATOCELLULAR CARCINOMA): equivocal
carcinogen call (Species: MOUSE, Strain/Sex: B6C3F1/MALE, Route: ORAL, Dose: 0, 1.0, 2.0% OF DIET FOR 78 WK (STUDY DURATION: 94 WK), Dose: 0, 1.0, 2.0% OF DIET FOR 78 WK (STUDY DURATION: 94 WK)): inactive; negative
carcinogen call (Species: RAT, Strain/Sex: F344/FEMALE, Route: ORAL, Dose: 0, 0.6, 1.2% OF DIET FOR 78 WK (STUDY DURATION: 109 WK), Dose: 0, 0.6, 1.2% OF DIET FOR 78 WK (STUDY DURATION: 109 WK)): inactive; negative
carcinogen call (Species: RAT, Strain/Sex: F344/MALE, Route: ORAL, Dose: 0, 0.6, 1.2% OF DIET OR 78 WK (STUDY DURATION: 109 WK), Dose: 0, 0.6, 1.2% OF DIET OR 78 WK (STUDY DURATION: 109 WK)): inactive; negative

CCC(C)OC(OC(C)CC)C(=O)c1ccccc1 (stereo not given)
carcinogen call (Species: MOUSE, Strain/Sex: C3H/HEJ/MALE, Route: DERMAL, Dose: 0, 22.4 MG UNDILUTED 3/WK FOR LIFESPAN (STUDY DURATION: LIFESPAN)): inactive; negative

C/C=C/Cl
carcinogen call (Species: MOUSE, Strain/Sex: ICR/FEMALE, Route: GAVAGE, Dose: 1.0 MG IN 0.1 ML TRIOCTANOIN 1/WK, Tumor Site: Type of Lesion: FORESTOMACH: SQUAMOUS CELL CARCINOMA): active; positive

O=C1CCc2ccccc2O1
carcinogen call (Species: MOUSE, Strain/Sex: B6C3F1/FEMALE, Route: GAVAGE, Dose: 0, 200, 400, 800 MG/KG IN CORN OIL 1/D 5 D/WK FOR 103 WK (STUDY DURATION: 103 WK), Dose: 0, 200, 400, 800 MG/KG IN CORN OIL 1/D 5 D/WK FOR 103 WK (STUDY DURATION: 103 WK), Tumor Site: Type of Lesion: LIVER: HEPATOCELLULAR ADENOMA, HEPATOCELLULAR ADENOMA OR CARCINOMA): active; positive
carcinogen call (Species: MOUSE, Strain/Sex: B6C3F1/MALE, Route: GAVAGE, Dose: 0, 200, 400, 800 MG/KG IN CORN OIL 1/D 5 D/WK FOR 103 WK (STUDY DURATION: 103 WK), Dose: 0, 200, 400, 800 MG/KG IN CORN OIL 1/D 5 D/WK FOR 103 WK (STUDY DURATION: 103 WK)): inactive; negative
carcinogen call (Species: RAT, Strain/Sex: F344/FEMALE, Route: GAVAGE, Dose: 0, 150, 300, 600 MG/KG IN CORN OIL 1/D 5 D/WK FOR 103 WK (STUDY DURATION: 103 WK), Dose: 0, 150, 300, 600 MG/KG IN CORN OIL 1/D 5 D/WK FOR 103 WK (STUDY DURATION: 103 WK)): inactive; negative
carcinogen call (Species: RAT, Strain/Sex: F344/MALE, Route: GAVAGE, Dose: 0, 150, 300, 600 MG/KG IN CORN OIL 1/D 5 D/WK FOR 103 WK (STUDY DURATION: 103 WK), Dose: 0, 150, 300, 600 MG/KG IN CORN OIL 1/D 5 D/WK FOR 103 WK (STUDY DURATION: 103 WK), Tumor Site: Type of Lesion: KIDNEY (RENAL TUBULE): ADENOMA): active; positive

Cn1c(CCCC(=O)O)nc2cc(N(CCCl)CCCl)ccc21
carcinogen call (Species: MOUSE, Strain/Sex: AB/JENA/FEMALE, Route: INTRAPERITONEAL, Dose: 0, 12.5, 25 MG/KG IN 2 ML SALINE 1/D FOR 4 D FOR A TOTAL DOSE OF 0, 50, 100 MG/KG, Dose: 0, 12.5, 25 MG/KG IN 2 ML SALINE 1/D FOR 4 D FOR A TOTAL DOSE OF 0, 50, 100 MG/KG, Tumor Site: Type of Lesion: PERITONEUM: SARCOMA): active; positive
carcinogen call (Species: MOUSE, Strain/Sex: AB/JENA/FEMALE, Route: ORAL, Dose: 0, 62.5 MG/KG IN 0.25 ML WATER 1/D FOR 4 D FOR A TOTAL DOSE OF 0, 250 MG/KG, Dose: 0, 62.5 MG/KG IN 0.25 ML WATER 1/D FOR 4 D FOR A TOTAL DOSE OF 0, 250 MG/KG, Tumor Site: Type of Lesion: LUNG: ADENOMA): active; positive
